The record followed here is patent publication US20240294551A1 (AMGEN INC., priority 2022, published 2024).

In assay [1] the target is His-tagged KRAS G12D protein (Homo sapiens (Human), UniProt P01116, G12D). The assay can be described thus: KRAS G12D TR-FRET Assay. The assay is classed as binding. To be noted: read-out: KRAS G12D Binding IC50. The procedure, abridged:
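His-tagged KRAS G12D (diluted to 20 nM in pH 7.4 HEPES buffer with 10 mM MgCl2 and 10 μM GDP) was preincubated with titrated compound for 30 min at room temperature. Biotinylated KRPep-2d peptide (diluted to 20 nM) was then added for 1 h, and displacement was monitored by TR-FRET.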
On the technique in general: Time-resolved FRET reads energy transfer from a long-lived donor to a nearby acceptor.

In a further assay the test system is AsPC-1 cells. The assay can be described thus: AsPC-1 CTG Assay (CellTiter-Glo cell viability). The settings on record: Homo sapiens, ASPC1, 72 h, AsPC-1, 72 h; first value of the cell; read-out: G12D/C/V Cell Proliferation CTG (72 h) AsPC-1. The assay is classed as cell-based, human. The procedure, abridged:
(§1)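 Human pancreatic AsPC-1 or colon SW620 cells in RPMI 1640 with 10% FBS, seeded overnight, then exposed to serially diluted compound for 72 h at 37 °C. CellTiter-Glo luminescence normalized to DMSO control; IC50 from a 4-parameter logistic model.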

In assay [2] the test system is Phosphorylation of ERK1/2 in AsPC-1 cells. The assay can be described thus: Phospho-ERK1/2 MSD Assay. The format is cell-based, human. The settings on record: Homo sapiens, ASPC1, 2 h, read-out: 2 h p-ERK (AsPC-1 cells), IC50. The procedure, abridged: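 Read-out: MSD electrochemiluminescent detection of phosphorylated ERK1/2 in whole-cell lysates, fitted to a 4-parameter logistic curve for IC50. Prior to lysis, AsPC-1 cells (25,000 per well) received a 2 h compound dose-response at 37 °C.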

The next assay relates to MIA PaCa-2 cells. The assay can be described thus: MIA PaCa-2 CTG Assay (CellTiter-Glo cell viability). To be noted: Homo sapiens; Mia PaCa-2, 72 h; second value of the cell; read-out: G12D/C/V Cell Proliferation CTG (72 h) Mia PaCa-2. The assay is classed as cell-based, human. A digest of the protocol: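 Human pancreatic carcinoma cells in RPMI 1640 with 10% FBS, seeded at 1.67E+04 cells/mL and left overnight, were treated with serially diluted compound for 72 h at 37° C, 5% CO2. Viability was read by CellTiter-Glo luminescence normalized to DMSO; IC50 came from a 4-parameter logistic fit.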

For assay [3], the system named is p-ERK in PANC 04.03 tumor-bearing mice. The assay can be described thus: Tumor Pharmacodynamic Assay (p-ERK inhibition in PANC 04.03 tumors). The assay is classed as in vivo. To be noted: Mus musculus; PANC 04.03 tumor-bearing female athymic nude mice; single oral dose 100 mg/kg; tumors harvested 2 hr later; relative to vehicle group. The method, then: Tumor Pharmacodynamic Assays
Inhibitor pharmacodynamic effects were assessed in PANC 04.03 tumor-bearing mice. PANC 04.03 tumor cells (5.0E+06 cells) were injected subcutaneously into the flank of female athymic nude mice in a mixture with Matrigel (BD Bioscience). Mice received a single oral dose of either vehicle or inhibitor (100 mg/kg) when the average tumor size reached -300-600 mm^3 (n=3/group) and harvested 2 hours later. Tumor samples were collected, snap frozen, and processed for analysis by pulverizing with a cryoPREP® Dry Impactor (Covaris). Pulverized samples were resuspended in RIPA lysis buffer containing protease and phosphatase inhibitors and homogenized. Cleared lysates were analyzed using phospho-ERK1/2 and total ERK1/2 whole cell lysate kits (Meso Scale Discovery) according to the manufacturer's protocol. Phospho-ERK1/2 signal was normalized to total ERK1/2 signal for a given sample, and percent inhibition of p-ERK was calculated relative to the vehicle group.

Another assay relates to SW620 cells. The assay can be described thus: SW620 CTG Assay (CellTiter-Glo cell viability). The format is cell-based, human. To be noted: Homo sapiens, SW-620; SW620, 72 h; third value of the cell; read-out: G12D/C/V Cell Proliferation CTG (72 h) SW620. The procedure, abridged: as §1
Background: In ATP-based viability assays light output follows the ATP content of the culture.

Assay [4] deals with GDP-bound KRAS protein (aa 1-169), containing both G12D and C118A amino acid substitutions (Homo sapiens (Human), UniProt P01116, C118A/G12D). The assay can be described thus: KRAS G12D Coupled Nucleotide Exchange Assay. The settings on record: read-out: KRAS G12D Coupled Exchange IC50. The format is biochemical.
Sequence of GDP-bound KRAS protein (aa 1-169), containing both G12D and C118A amino acid substitutions (P01116 other isoform, or with tags, fused parts or gaps G12D/C118A): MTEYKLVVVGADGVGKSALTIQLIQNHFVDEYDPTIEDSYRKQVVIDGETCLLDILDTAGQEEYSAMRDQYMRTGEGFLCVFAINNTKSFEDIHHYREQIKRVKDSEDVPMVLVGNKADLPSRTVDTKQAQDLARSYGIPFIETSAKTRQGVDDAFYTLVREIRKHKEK

Sequence of His-tagged KRAS G12D protein (P01116 other isoform, or with tags, fused parts or gaps G12D): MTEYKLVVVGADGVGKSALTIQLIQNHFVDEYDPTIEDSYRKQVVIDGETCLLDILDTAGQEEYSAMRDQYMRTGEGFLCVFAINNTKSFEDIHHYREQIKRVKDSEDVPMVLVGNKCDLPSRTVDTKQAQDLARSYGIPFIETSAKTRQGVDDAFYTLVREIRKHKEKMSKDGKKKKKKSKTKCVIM

Usually inhibition in vivo stands for the change of the read-out against control, counted positive when it falls. Turning to `CN1CCC[C@H]1COc1nc2c3cnc(c(F)c3n1)-c1c(c(Cl)cc3[nH]ncc13)CCOC(=O)O[C@H]1C[C@]3(CCCN2C3)C1` (single isomer, unassigned) [Example 212], the IC50 stood at 4 nM in assay [1]; 79 nM in the assay with AsPC-1 cells; 5.3 nM in assay [2]; 24 nM with MIA PaCa-2 cells; 20 nM with SW620 cells; 3 nM in assay [4]. Further, 100 mg/kg produced 85% inhibition in vivo in assay [3].
Consider `C[C@@]12CCCN(C1)c1nc(OC[C@@]34CCCN3C[C@H](F)C4)nc3c(F)c(ncc13)-c1cccc3ccc(F)c(c13)CCCC(=O)N2` [Example 7, (15R)-22,31-Difluoro-8-(((2R,7aS)-2-fluorotetrahydro-1H-pyrrolo[1,2-a]pyrrol-7a(5H)-yl)methoxy)-15-methyl-3,7,9,11,16-pentaazahexacyclo[19.7.1.1˜2,6˜.1˜11,15˜.0˜5,10˜.0˜25,29˜]hentriaconta-1(28),2(31),3,5,7,9,21,23,25(29),26-decaen-17-one bis(2,2,2-trifluoroacetate)], for which the values for the IC50 in assay [1], in assay [2] and in assay [4] were 15 nM, 260 nM and 15 nM, respectively. Besides, the inhibition in vivo at 100 mg/kg in assay [3] amounted to 21%.
Regarding `C[C@@]12CCCN(C1)c1nc(OC[C@@]34CCCN3C[C@H](F)C4)nc3c(F)c(c(F)cc13)-c1cc(O)cc3ccc(F)c(c13)CCCC(=O)N2` [Example 15, (15R)-3,22,31-Trifluoro-8-(((2R,7aS)-2-fluorotetrahydro-1H-pyrrolo[1,2-a]pyrrol-7a(5H)-yl)methoxy)-27-hydroxy-15-methyl-7,9,11,16-tetraazahexacyclo[19.7.1.1˜2,6˜.1˜11,15˜.0˜5,10˜.0˜25,29˜]hentriaconta-1(28),2(31),3,5,7,9,21,23,25(29),26-decaen-17-one bis(2,2,2-trifluoroacetate)], the IC50 in assay [1] turned out to be 4 nM; in the assay on AsPC-1 cells, 141 nM; in assay [2] it was 19 nM; with SW620 cells, 80 nM; in assay [4], 3 nM. For the same compound, 100 mg/kg produced 0% inhibition in vivo in assay [3].
In the case of `Cc1cc2[nH]ncc2c2c1CCCOC(=O)O[C@@H]1COCCN(C1)c1nc(OC[C@@]34CCCN3C[C@H](F)C4)nc3c(F)c-2ncc13` [Example 97, (26S)-32-fluoro-4-(((2R,7aS)-2-fluorotetrahydro-1H-pyrrolo[1,2-a]pyrrol-7a(5H)-yl)methoxy)-18-methyl-23,25,28-trioxa-1,3,5,9,14,15-hexaazahexacyclo[24.4.1.1~6,10~.0~2,7~.0~11,19~.0~12,16~]dotriaconta-2,4,6,8,10(32),11,13,16,18-nonaen-24-one], the IC50 in assay [1] is 2 nM; with AsPC-1 cells it was 80 nM; in assay [2], 9 nM; in the assay with MIA PaCa-2 cells it was 20 nM; in the assay on SW620 cells it was 20.8 nM; in assay [4] it was 1 nM. The compound further yielded an inhibition in vivo at 100 mg/kg in assay [3] of 85%.
Take `C[C@@]12CCCCN(C1)c1nc(OC[C@@]34CCCN3C[C@H](F)C4)nc3c(F)c(ncc13)-c1c(c(Cl)cc3[nH]ncc13)CCCCC(=O)N2` [Example 166, (26R)-18-chloro-32-fluoro-4-(((2R,7aS)-2-fluorotetrahydro-1H-pyrrolo[1,2-a]pyrrol-7a(5H)-yl)methoxy)-26-methyl-1,3,5,9,14,15,25-heptaazahexacyclo [24.4.1.1~6,10~.0~2,7~.0~11,19~.0~12,16~]dotriaconta-2,4,6,8,10(32),11,13,16,18-nonaen-24-one]: the IC50 is 5 nM in assay [1]; 68 nM with AsPC-1 cells; 16.2 nM in assay [2]; 90 nM in the assay with MIA PaCa-2 cells; 3 nM in assay [4]. Moreover, the inhibition in vivo at 100 mg/kg in assay [3] turned out to be 63%.
On to `O=C1COCCCc2c(Cl)cc3[nH]ncc3c2-c2ncc3c(nc(OC[C@@]45CCCN4C[C@H](F)C5)nc3c2F)N2CC[C@H]3CCN1[C@H]3C2` [Example 168, (29S,33R)-18-chloro-34-fluoro-4-(((2R,7aS)-2-fluorotetrahydro-1H-pyrrolo[1,2-a]pyrrol-7a(5H)-yl)methoxy)-23-oxa-1,3,5,9,14,15,26-heptaazaheptacyclo[24.5.2.1~6,10~.0~2,7~.0~11,19~.0~12,16~.0~29,33~]tetratriaconta-2,4,6,8,10(34),11,13,16,18-nonaen-25-one], for which the IC50 is 3 nM in assay [1]; 10 nM with AsPC-1 cells; 1.3 nM in assay [2]; 3 nM with SW620 cells; 1 nM in assay [4]. The compound also displayed an inhibition in vivo at 100 mg/kg in assay [3] of 65%.
Consider `CN1CCC[C@H]1COc1nc2c3cnc(c(F)c3n1)-c1c(c(Cl)cc3[nH]ncc13)CCCOC(=O)O[C@]1(C)COCCN2C1` [Example 181, (26S)-18-chloro-32-fluoro-26-methyl-4-(((2S)-1-methyl-2-pyrrolidinyl)methoxy)-23,25,28-trioxa-1,3,5,9,14,15-hexaazahexacyclo[24.4.1.1~6,10~.0~2,7~.0~11,19~.0~12,16~]dotriaconta-2,4,6,8,10(32),11,13,16,18-nonaen-24-one], for which the IC50 in assay [1] is 6 nM; in assay [2], 18.8 nM; in the assay with MIA PaCa-2 cells, 10 nM; in the assay with SW620 cells it was 8 nM; in assay [4], 3 nM. Also, the inhibition in vivo at 100 mg/kg in assay [3] was 65%.
Turning to `C[C@@]12COCCN(C1)c1nc(OCC34CCCN3CCC4)nc3c(F)c(ncc13)-c1c(c(Cl)cc3[nH]ncc13)CCCOC(=O)O2` [Example 209, (26S)-18-chloro-32-fluoro-26-methyl-4-(tetrahydro-1H-pyrrolo[1,2-a]pyrrol-7a(5H)-ylmethoxy)-23,25,28-trioxa-1,3,5,9,14,15-hexaazahexacyclo[24.4.1.1~6,10~.0~2,7~.0~11,19~.0~12,16~]dotriaconta-2,4,6,8,10(32),11,13,16,18-nonaen-24-one], the IC50 in assay [1] worked out at 5 nM; with AsPC-1 cells, 3 nM; in assay [2], 3.9 nM; in the assay on SW620 cells, 3 nM; in assay [4], 3 nM. The compound further came in with an inhibition in vivo at 100 mg/kg in assay [3] of 63%.
With `O[C@@H]1c2ncc(o2)CCc2c(Cl)cc3[nH]ncc3c2-c2ncc3c(nc(OC[C@@]45CCCN4C[C@H](F)C5)nc3c2F)N2CCC[C@@H]1C2` [Example 233], the IC50 in assay [1] amounted to 4 nM; with AsPC-1 cells, 2 nM; in assay [2] it was 1 nM; in the assay on SW620 cells it was 1 nM; in assay [4], 3 nM. In assay [3], this compound had an inhibition in vivo at 100 mg/kg of 23%.
Take `O=C1OCCc2c(Cl)cc3[nH]ncc3c2-c2ncc3c(nc(OC[C@@]45CCCN4C[C@H](F)C5)nc3c2F)N2CCO[C@]3(C2)C[C@H](C3)O1` [Example 248, (1R,3R)-10-chloro-32-fluoro-24-(((2R,7aS)-2-fluorotetrahydro-1H-pyrrolo[1,2-a]pyrrol-7a(5H)-yl)methoxy)-4,6,30-trioxa-13,14,19,23,25,27-hexaazaheptacyclo[25.3.1.1~1,3~.1~18,22~.0~9,17~.0~12,16~.0~21,26~]tritriaconta-9,11,14,16,18(32),19,21,23,25-nonaen-5-one]: the IC50 was found to be 4 nM in assay [1]; 13 nM with AsPC-1 cells; 7.8 nM in assay [2]; 7 nM in the assay on MIA PaCa-2 cells; 2 nM in assay [4]. In assay [3], this compound yielded an inhibition in vivo at 100 mg/kg of 85%.
